Ends that are not written are not given here.
Assays:
[1] = tested on: CHA15 cells transcriptome / NMD targets; assay: RNA-seq of CPP-peptide-treated CHA15 cells (NMD targets, SDGs; Fig. 6a, b, d; Supplementary Fig. 6a; Supplementary Data 2); format: cell-based, Homo sapiens; conditions: for gene expression, CPP-P8 / P1: vs P1, RNA-seq; for number of NMD targets significantly changed by CPP-P8: hESCs (CHA15)
Method: (§1) For CPP-conjugated peptide delivery, HeLa, 293T, and PA-1 cells were incubated with CPP-conjugated peptides or CPP-FITC at 2 μM in DMEM with 10% FBS for 12 h a day before cell harvest. hPSCs were treated with CPP-conjugated peptides at 10 μM in mTeSR Plus Medium, […] The ROCK inhibitor (Tocris Bioscience, Y-27632) treated-hPSCs were dissociated into single cells using Accutase (Merck, SCR005) and differentiated into ectoderm, mesoderm, and endoderm using the STEMdiff Trilineage Differentiation Kit ([…] Technologies, 05230) following the manufacturer’s protocol. Differentiated cells treated with CPP-conjugated peptides were analysed at 0, 3, and 5 days for ectoderm and endoderm, and at 0, 3, and 4 days for mesoderm.
Total RNA concentration was calculated using Quant-IT RiboGreen (Invitrogen, R11490). To assess the integrity of the total RNA, samples were run on a TapeStation RNA screentape (Agilent). Only high-quality RNA preparations with RNA integrity number greater than 7.0 were used for the RNA library construction. A library was independently prepared with 1 μg of total RNA from each sample using the Illumina TruSeq Stranded mRNA Sample Prep Kit (Illumina, 20020594). The first step in the workflow involves purifying poly‐A-containing mRNA molecules using poly‐T‐attached magnetic beads. Following purification, mRNA was fragmented into small pieces using divalent cations at elevated temperatures. The cleaved RNA fragments were copied into first-strand cDNA using SuperScript II reverse transcriptase (Invitrogen, 18064022) and random primers. This was followed by second-strand cDNA synthesis using DNA polymerase I, RNase H, and dUTP. These cDNA fragments underwent an end repair process, adding a single ‘A’ base and ligating the adapters. The products were purified and enriched via PCR to create the final cDNA library. The libraries were quantified using the KAPA Library Quantification Kits for Illumina Sequencing platforms according to the qPCR Quantification Protocol Guide (KAPA BIOSYSTEMS, KR0405) and qualified using the TapeStation D1000 ScreenTape (Agilent). Indexed libraries were then submitted to an Illumina NovaSeq (Illumina), and Macrogen Inc. performed paired-end (2 × 100 bp) sequencing.
We pre-processed the raw reads from the sequencer to remove low-quality reads and adapter sequences before analysis and aligned the processed reads to Homo sapiens (GRCh37) using HISAT v2.1.0[52]. HISAT utilises two indices for alignment (a global whole-genome index and tens of thousands of small local indexes). These two types of indices are constructed using the same Burrows-Wheeler transform (BWT)/graph FM index (GFM) as Bowtie2. The reference genome sequence of Homo sapiens (GRCh37) and the annotation data were downloaded from the NCBI database. Transcript assembly was processed using StringTie v1.3.4d[53],[54]. […] Differentially expressed genes (DEGs) were analysed by ratio of FPKM or using DESeq2 with read counts. Log2 fold-change value of the NMD targets[25],[32], three germ layer markers, miRNA targets, or SDGs was converted into cumulative frequency curve using the R function, ‘ecdf’ (version 4.0.5). Gene functional classification and Gene ontology (GO) were performed using g:Profiler[56].

[2] = tested on: hPSCs (CHA15, H9, Pro2); assay: Long-term culture with CPP-peptides: morphology, spontaneous differentiation, lineage marker RT-qPCR (Supplementary Fig. 6c); format: cell-based, human
Method: as §1, with “mesoderm. […]” for “mesoderm.”
cDNA was synthesised using RevertAid Reverse Transcriptase (Thermo Fisher Scientific, EP0441) with synthesised random hexamer (Macrogen) for total RNA or stem-loop primers for miRNA. For RT-qPCR reactions, the SensiFAST SYBR No-ROX kit (Meridian Bioscience) was used according to the manufacturer’s protocol. All data analysis and visualisation were conducted using R 3.6.1 [www.r-project.org] or GraphPad Prism 10. RT primers for miRNA and RT-qPCR primer sequences are provided in Supplementary Data 6. […]
Cell m orphology was visualised by phase contrast m icroscopy. T he red boundary indicated the spontaneously differentiated hPSCs. RT -qPCR was perform ed to m easure the relative levels of each lineage m ark er. […]
5p and m iR-16- 5p was shown as CDF graphs. T he relative level of m RNA was norm alised to that of U6 snRNA in (c, d, and f). K–S tests were used for e and f. Unpaired Student’s t-test was used for c , d, and f . * p < 0.05, ** p < 0.01, *** p < 0.001. Exact p -values were provided in Source data. Data are presented as m ean values ± SEM. All statistical test used were two- sided. T he m inim um num ber of independent biological replicate experim ents was a and e n = 2, b–d and f n = 3. T he experim ents were conducted three tim es, each iteration producing consistent results.

[3] = RT-qPCR, CHA15 cell, group 1, mean of set1-set3, Mean of A = 1
[4] = RT-qPCR, CHA15 cell, group 2, mean of set1-set3, Mean of A = 1
[5] = RT-qPCR, CHA15 cell, group 3, mean of set1-set3, Mean of A = 1
[6] = RT-qPCR, H9 cell, group 1, mean of set1-set3, Mean of A = 1
[7] = RT-qPCR, H9 cell, group 2, mean of set1-set3, Mean of A = 1
[8] = RT-qPCR, Pro2 cell, group 1, mean of set1-set3, Mean of A = 1
[9] = RT-qPCR, Pro2 cell, group 2, mean of set1-set3, Mean of A = 1

## KKKWCRKKKSSADEKRYRALKRTAERELLMNA [CPP-P8, CPP conjugated to P8]
[1]; ACTC1
  gene expression, CPP-P8 / P1: -1.36
[1]; ACTN1
  gene expression, CPP-P8 / P1: -1.23
[1]; ADAR
  gene expression, CPP-P8 / P1: -1.28
[1]; ADM
  gene expression, CPP-P8 / P1: -2.99
[1]; CHA15, 10 μM daily for 5 days
  levels of the NMD targets: efficiently depressed the levels of the NMD targets
[1]; CHA15, 5 days, p < 0.05
  transcripts with significant two-fold change: 69 transcripts
[1]; CHA15, P8 vs P1 plot (Fig. 6d)
  CAPN6 expression (dot plot): 0.9142
  CDH6 expression (dot plot): 0.924
  CYP26A1 expression (dot plot): 1.759
  DLX5 expression (dot plot): 0.5911
[1]; CHA15, |Fc| > 1.2, P < 0.05, of 286 NMD targets
  number of NMD targets downregulated: 32 transcripts
[1]; |Fc| > 1.2, p < 0.05
  number of NMD targets significantly changed by CPP-P8: 51
[1]; hPSCs, over 1.2-fold
  NMD targets commonly regulated with UPF1- and LIN28A-depletion: 10 NMD targets
  transcripts commonly regulated with UPF1- and LIN28A-depletion: 230 transcripts
[2]; hPSCs, over 15 days
  cell morphology and spontaneous differentiation: altered the cell morphology, induced spontaneous differentiation, and regulated the levels of differentiated makers
[2]; hPSCs, proliferation
  levels of differentiated markers: upregulated the levels of differentiated markers

## KKKWCRKKKSSADEKRYRALKRTAERELLMNA [P8]
[1]; |Fc| > 1.2, p < 0.05
  number of NMD targets significantly changed by CPP-P8: 51
[1]; hPSCs
  NMD targets as share of significantly changed genes: 2.3%
[1]; hPSCs, |Fc| > 1.2, p < 0.05
  number of transcripts significantly regulated: 2196 transcripts
[2]; [3]
  CDH9, Mean of column B: 3.237
  DLK1, Mean: 13.42
  DMBX1, Mean: 7.311
  RAX, Mean: 3.757
[2]; [4]
  DLK1, Mean: 23.82
  LHX2, Mean: 41.74
  POU5F1, Mean of column B: 0.6246
  RAX, Mean: 18.83
[2]; [5]
  CDH9, Mean of column B: 2.791
  LHX2, Mean: 5.887
  POU5F1, Mean of column B: 0.7547
  RAX, Mean: 2.315
[2]; [6]
  DLK1, Mean: 3.511
  DMBX1, Mean: 5.531
  LHX2, Mean: 2.919
  PAX6, Mean of column B: 3.972
[2]; [7]
  DLK1, Mean: 2.588
  LHX2, Mean: 115.8
  NANOG, Mean: 0.1136
  TBX6, Mean of column B: 22.31
[2]; [8]
  DLK1, Mean: 6.526
  LHX2, Mean: 0.3053
  POU5F1, Mean of column B: 0.5752
  RAX, Mean: 3.096
[2]; [9]
  DLK1, Mean: 9.273
  LHX2, Mean: 16.93
  NANOG, Mean: 0.2569
  POU5F1, Mean of column B: 0.08931
